In patent US20100210649A1, “PYRIDAZINONES AND FURAN-CONTAINING COMPOUNDS” (Sloan-Kettering Institute for Cancer Research, priority 2006, published 2010):
Read-outs that look alike come from different tables or passages of the source.

Key:
Format in all cases: cell-based, human
[1] = system: H2030; experiment: Non Small Cell Lung Cancer proliferation assay (Alamar Blue reduction), H2030; conditions: Homo sapiens, NCI-H2030, primary screening, 10 μM compound in 1% DMSO (v/v)
Description: (§1) These cells have a doubling time of 1-2 days. All cell types are adherent and grow in colonies. The cells should be kept at a density between 50,000 cells/mL -500,000 cells/mL to provide for optimum growth and adequate nutrition. The cell line should be maintained at 37° C. in a humidified atmosphere with 5% CO2 in a sterile cell culture incubator.
(§2) Non Small Cell Lung Cancer Proliferation Assay.
(§3) High Controls for this assay are made by treating Non Small Cell Lung Cancer cells with 5 ul of 10% DMSO. [Final concentration in this assay is 1% DMSO].
(§4) Important Note: All compounds for testing in this assay should be done at the final concentration of 1% DMSO.
(§5) After addition, the cells are placed in cell culture incubator at 37° C. for 48 hours for complete treatment.
(§6) After drug treatment, cytotoxicity is measured by Alamar Blue reduction.
(§7) The cells are incubated for 48 hours at 37° C. to complete the Alamar Blue reduction.
(§8) The final step in the assay is to measure the amount of Alamar Blue reduction. […] The Alamar Blue fluorescence is measured at an excitation of 530 nm and emission of 590 nm.
(§9) For the NSCLC project, the cell based assay was screened against a small molecule library of approximately 200,000 compounds. The compound library is stored in our automated robotic freezer (Biophile) at −20° C. in 100% DMSO. Compound freeze and thaw cycles are kept to a minimum. […] This assay was performed on a fully automated linear track robotic platform (CRS F3 Robot System, Thermo Electron Corp., Ontario, Canada) utilizing several integrated peripherals for plate handling, liquid dispensing, and readout detection. […] The microplates are then placed at 37° C. for 48 hours to complete treatment of cells with compounds. Next, 5 ul of alamar blue was added using a liquid dispenser (Flexprop Precision Dispenser, Perkin Elmer, Mass., USA) and incubated for 48 hours at 37° C. The alamar blue prompt fluorescence was measured on Victor V (Victor^3 V, Perkin Elmer, Mass., USA) and output data files were loaded into ORIS (Oncology Research Informatics System, MSKCC, NY, USA), a screening data acquisition and analysis platform.
(§10) The dose response studies were done with the following standard procedure. First, the cells were counted and dispensed at 250 cells/well into 384-well microplates with compound. The cells were incubated for 48 hours at 37 C to complete treatment, and then alamar blue was added for an additional 48 hours. Finally, alamar blue reduction was measured and the data was loaded into ORIS, our data screening acquisition platform.

[2] = system: H1650; experiment: Non Small Cell Lung Cancer proliferation assay (Alamar Blue reduction), H1650; conditions: Homo sapiens, NCI-H1650, primary screening, 10 μM compound in 1% DMSO (v/v)
Description: as §1, §2, §3, §4, §5, §6, §7, §8, §9, §10

[3] = system: H3255; experiment: Non Small Cell Lung Cancer proliferation assay (Alamar Blue reduction), H3255; conditions: Homo sapiens, NCI-H3255, primary screening, 10 μM compound in 1% DMSO (v/v)
Description: as §1, §2, §3, §4, §5, §6, §7, §8, §9, §10

[4] = system: H1975; experiment: Non Small Cell Lung Cancer proliferation assay (Alamar Blue reduction), H1975; conditions: Homo sapiens, NCI-H1975, primary screening, 10 μM compound in 1% DMSO (v/v)
Description: as §1, §2, §3, §4, §5, §6, §7, §8, §9, §10

[5] = H2030, read-out: PRIMARY HTS [%] H2030 (percentage inhibition)
[6] = H1650, read-out: PRIMARY HTS [%] H1650 (percentage inhibition)
[7] = H3255, read-out: PRIMARY HTS [%] H3255 (percentage inhibition)
[8] = H1975, read-out: PRIMARY HTS [%] H1975 (percentage inhibition)

Row | Structure (SMILES) | inhibition at 10 µM [1, 5] | inhibition at 10 µM [2, 6] | inhibition at 10 µM [3, 7] | inhibition at 10 µM [4, 8] | inhibition at 10 µM ([1]; read-out: percentage inhibition H2030) | inhibition at 10 µM ([2]; read-out: percentage inhibition H1650) | inhibition at 10 µM ([3]; read-out: percentage inhibition H3255) | inhibition at 10 µM ([4]; read-out: percentage inhibition H1975)
1 | O=C(Nc1cccc([N+](=O)[O-])c1)c1ccco1 [compound 87246] | 9% | 8% | 5% | -3% | – | – | – | –
2 | O=C(Nc1ccccc1C(=O)NCc1ccc(Cl)cc1)c1ccco1 [compound 88935] | -1% | -4% | -2% | -10% | – | – | – | –
3 | CC(C)(C)NC(=O)c1ccc(NC(=O)c2ccco2)cc1 [compound 91753] | -5% | -3% | -1% | -22% | – | – | – | –
4 | O=C(Nc1ccc(N2CCN(Cc3ccccc3Cl)CC2)cc1)c1ccco1 [compound 92553] | 5% | 2% | 1% | -3% | – | – | – | –
5 | O=C(Nc1ccc(N2CCN(Cc3ccccc3)CC2)cc1)c1ccco1 [compound 93911] | -3% | -4% | -1% | -22% | – | – | – | –
6 | Cc1ccc(C(=O)N2CCN(c3ccc(NC(=O)c4ccco4)cc3)CC2)cc1 [compound 95436] | 2% | 2% | -3% | -12% | – | – | – | –
7 | Cc1ccc(C(=O)Nc2ccc(NC(=O)c3ccco3)cc2)c(C)c1 [compound 97216] | -4% | -1% | 3% | -4% | – | – | – | –
8 | O=C(Nc1ccc(N2CCN(C(=O)c3ccco3)CC2)cc1)c1ccco1 [compound 97253] | -5% | -2% | -3% | -15% | – | – | – | –
9 | O=C(c1ccc([N+](=O)[O-])o1)N(c1ccccc1)c1ccccc1 [compound 98705] | 8% | -8% | 9% | 14% | – | – | – | –
10 | O=C(c1ccc([N+](=O)[O-])o1)N1CCc2ccccc21 [compound 100403] | 3% | -13% | 2% | -13% | – | – | – | –
11 | O=[N+]([O-])c1ccc(CN2CCN(c3ccccc3)CC2)o1 [compound 100483] | -1% | -1% | 1% | -8% | – | – | – | –
12 | O=[N+]([O-])c1ccc(CN2CCN(Cc3ccccc3)CC2)o1 [compound 100507] | 7% | -3% | 1% | -15% | – | – | – | –
13 | COc1ccc(N2CCN(Cc3ccc([N+](=O)[O-])o3)CC2)cc1 [compound 100588] | 5% | -5% | 4% | -14% | – | – | – | –
14 | CN1CCN(Cc2ccc([N+](=O)[O-])o2)CC1 [compound 100652] | -6% | -12% | -3% | -2% | – | – | – | –
15 | O=[N+]([O-])c1ccc(CN2CCN(c3ccccc3F)CC2)o1 [compound 100792] | 43% | -5% | 1% | -9% | – | – | – | –
16 | Cc1cccc(N2CCN(Cc3ccc([N+](=O)[O-])o3)CC2)c1C [compound 101070] | 5% | 2% | 1% | -18% | – | – | – | –
17 | O=C(Nc1ccc(-c2ccc([N+](=O)[O-])cc2)cc1)c1ccco1 [compound 102031] | -1% | -2% | 3% | -11% | – | – | – | –
18 | O=c1c(Cl)c(Cl)cnn1-c1ccc([N+](=O)[O-])cc1 [compound 103529] | – | – | – | – | 15% | -13% | 1% | 97%
